Experimental findings from article PMC4732513, “Efficient one-pot synthesis, molecular docking and in silico ADME prediction of bis-(4-hydroxycoumarin-3-yl) methane derivatives as antileishmanial agents” (EXCLI Journal, 2015) are described below.

Values after ≈ are worked out from the molar mass of the structure shown.

The first assay concerns L. donovani promastigotes (NHOM/IN/80/DD8). In words: In vitro antileishmanial activity (modified MTT assay). The class given is cell-based, Leishmania donovani. The note with it: Figure 3. The protocol: The assay for in vitro antileishmanial activity on culture of L. donovani promastigotes (NHOM/IN/80/DD8) was carried out in 96-well tissue culture plates. The promastigotes culture was maintained at 22 ^οC in modified RPMI 1640 pH 7.4 (without phenol red) with 10 % FCS medium. Drug dilutions were prepared in DMSO and appropriate concentration of each drug was used in triplicate. Plates were incubated at 22 °C for 72 h and evaluated using modified MTT assay, where the conversion of 3-(4,5-dimethylthiazol-2-yl)-2,5-diphenyltetrazolium bromide (MTT) to formazan by mitochondrial enzymes served as an indicator of cell viability and the amount of formazan produced was directly proportional to the number of metabolically active cells. Accordingly, absorbance at 492 nm represented the number of live cells. The concentration that decreased cell growth by 50 % (IC50) was determined by graphic interpolation. Pentamidine and sodium stibogluconate were used as standard drugs (Dutta et al., 2005[11]).
The assay for in vitro antileishmanial activity was carried out on cultures of L. donovani promastigotes. The concentration that decreased cell growth by 50 % (IC50) was determined by graphic interpolation and data obtained depicted in Table 3(Tab. 3).
(In general: Formazan colour is commonly taken as a measure of viable cells.)
`CN(C)c1ccc(C(c2c(O)c3ccccc3oc2=O)c2c(O)c3ccccc3oc2=O)cc1` [3l, 3,3'-((4-(Dimethylamino)phenyl)methylene)bis(4-hydroxy-2H-chromen-2-one)]: the “Effect on L. donovani promastigotes (viability, morphology)” value is recorded as “organisms lost its viability as seen by irregular shape morphology”.

Still in this assay, the particulars now being: L. donovani promastigotes, 72 h at 22 °C, modified MTT, graphic interpolation.
In the case of `COc1ccc(C(c2c(O)c3ccccc3oc2=O)c2c(O)c3ccccc3oc2=O)c(OC)c1` [3g], the “IC50 (concentration that decreased cell growth by 50 %)” value stood at 157.5 µg/mL (≈ 333 µM).

For the compound `O.O.O.O.O.O.O.O.O.O=C([O-])[C@@H]1[O][Sb](=[O])([O][Sb]2(=[O])[O][C@H]([C@H](O)CO)[C@H](O)[C@H](C(=O)[O-])[O]2)[O][C@H]([C@H](O)CO)[C@@H]1O.[Na+].[Na+].[Na+]` (stereo partly drawn) [Sodium stibogluconate, sodium stibogluconate, reference compound], the “IC50 (concentration that decreased cell growth by 50 %)” value came out at 490 µg/mL.

Still in this assay, the particulars now being: Leishmania donovani, 72 h, read-out: IC50 (concentration that decreased cell growth by 50 %).
Take `CN(C)c1ccc(C(c2c(O)c3ccccc3oc2=O)c2c(O)c3ccccc3oc2=O)cc1` [3l, 3,3'-((4-(Dimethylamino)phenyl)methylene)bis(4-hydroxy-2H-chromen-2-one)]: the IC50 amounted to 150 µg/mL (≈ 329 µM). The same measure, in the same setting: under `N#Cc1ccc(C(c2c(O)c3ccccc3oc2=O)c2c(O)c3ccccc3oc2=O)cc1` [3k, 3,3'-((4-Cyanophenyl)methylene)bis(4-hydroxy-2H-chromen-2-one)] stands 225 µg/mL (≈ 514 µM); under `O=c1oc2ccccc2c(O)c1C(c1ccccc1)c1c(O)c2ccccc2oc1=O` [3a, 3,3'-(Phenylmethylene)bis(4-hydroxy-2H-chromen-2-one)], 155 µg/mL (≈ 376 µM); under `COc1ccc(OC)c(C(c2c(O)c3ccccc3oc2=O)c2c(O)c3ccccc3oc2=O)c1` [3h, 3,3'-((2,5-Dimethoxyphenyl)methylene)bis(4-hydroxy-2H-chromen-2-one)], 198 µg/mL (≈ 418 µM). The same measure, in the same setting: under `O=c1oc2ccccc2c(O)c1C(c1ccc(Cl)cc1)c1c(O)c2ccccc2oc1=O` [3b, 3,3'-((4-Chlorophenyl)methylene)bis(4-hydroxy-2H-chromen-2-one)] stands 312 µg/mL (≈ 699 µM); under `O=c1oc2ccccc2c(O)c1C(c1c(Cl)cccc1Cl)c1c(O)c2ccccc2oc1=O` [3c, 3,3'-((2,6-Dichlorophenyl)methylene)bis(4-hydroxy-2H-chromen-2-one)], 320 µg/mL (≈ 665 µM); under `COc1cc(C(c2c(O)c3ccccc3oc2=O)c2c(O)c3ccccc3oc2=O)cc(OC)c1OC` [3i, 3,3'-((3,4,5-Trimethoxyphenyl)methylene)bis(4-hydroxy-2H-chromen-2-one)], 262 µg/mL (≈ 522 µM). For the compound `O=c1oc2ccccc2c(O)c1C(c1ccc(F)cc1)c1c(O)c2ccccc2oc1=O` [3d, 3,3'-((4-Fluorophenyl)methylene)bis(4-hydroxy-2H-chromen-2-one)], the IC50 was 295 µg/mL (≈ 685 µM).

Consider `COc1ccc(C(c2c(O)c3ccccc3oc2=O)c2c(O)c3ccccc3oc2=O)cc1OC` [3f, 3,3'-((3,4-Dimethoxyphenyl)methylene)-bis(4-hydroxy-2H-chromen-2-one)], for which the IC50 came out at 275 µg/mL (≈ 582 µM).

For the compound `COc1ccc(C(c2c(O)c3ccccc3oc2=O)c2c(O)c3ccccc3oc2=O)cc1` [3e, 3,3'-((4-Methoxyphenyl)methylene)bis(4-hydroxy-2H-chromen-2-one)], the IC50 stood at 218 µg/mL (≈ 492 µM). `COc1cc(C(c2c(O)c3ccccc3oc2=O)c2c(O)c3ccccc3oc2=O)ccc1O` [3j, 3,3'-((4-Hydroxy-3-methoxyphenyl)methylene)bis(4-hydroxy-2H-chromen-2-one)]: the IC50 turned out to be 198 µg/mL (≈ 431 µM).

The same assay, now with this note: Leishmania donovani; L. donovani promastigotes, 72 h at 22 °C, modified MTT, graphic interpolation; read-out: IC50 (concentration that decreased cell growth by 50 %).
For the compound `N=C(N)c1ccc(OCCCCCOc2ccc(C(=N)N)cc2)cc1` [Pentamidine, pentamidine, reference compound], the IC50 amounted to 5.5 µg/mL (≈ 16.2 µM).
